US10646488B2 (Araxes Pharma LLC, priority 2016, dated 2020)
Also: test concentration or dose not given here.

Each compound was assayed against T1, KRAS G12C 1-169, his-tagged protein, GDP-loaded (Homo sapiens, UniProt P01116, G12C) (assay: Covalent binding (% modification) to KRAS G12C by mass spectrometry). Details: covalent binding to KRAS G12C after a ten minute incubation period.
T1 construct: KRAS G12C 1-169, his-tagged protein, GDP-loaded
`C=CC(=O)N1CCN(c2nc(N3CC(N(C)C)C3)nc3c(F)c(-c4c(O)cccc4F)c(Cl)cc23)[C@@H](C)C1` (atropisomer, axis not shown) [Compound 59, 1-((S)-4-((R)-6-chloro-2-(3-(dimethylamino)azetidin-1-yl)-8-fluoro-7-(2-fluoro-6-hydroxyphenyl)quinazolin-4-yl)-3-methyl-piperazin-1-yl) prop-2-en-1-one] was tested, and the Binding % was “+ (+ indicates binding activity up to 50%)”.
For `C=CC(=O)N1[C@H](C)CN(c2nc(NC3CCN(C4CC4)CC3)nc3c(F)c(-c4c(C)ccc5cn[nH]c45)c(Cl)cc23)C[C@@H]1C` [Compound 19, 1-((2S,6R)-4-(6-Chloro-2-((1-Cyclopropylpiperidin-4-Yl)Amino)-8-Fluoro-7-(6-Methyl-1H-Indazol-7-Yl)Quinazolin-4-Yl)-2,6-Dimethylpiperazin-1-Yl)Prop-2-En-1-One], the Binding % was “++ (++ indicates binding activity from 50 to 90%)”.
With `C=CC(=O)N1C[C@@H](C)N(c2nc(OCCN3CC(F)(F)C3)nc3c(F)c(-c4c(C)ccc5[nH]ncc45)c(Cl)cc23)[C@@H](C)C1` [Compound 45, 1-((3S,5R)-4-(6-chloro-2-(2-(3,3-difluoroazetidin-1-yl)ethoxy)-8-fluoro-7-(5-methyl-1H-indazol-4-yl)quinazolin-4-yl)-3,5-dimethyl-piperazin-1-yl) prop-2-en-1-one] the Binding % was “++ (++ indicates binding activity from 50 to 90%)”.
In the case of `C=CC(=O)N1[C@H](C)CN(c2nc(N)nc3c(F)c(-c4cc(O)cc5ccccc45)c(Cl)cc23)C[C@@H]1C` [Compound 7, 1-((2S,6R)-4-(2-amino-6-chloro-8-fluoro-7-(3-hydroxynaphthalen-1-yl)quinazolin-4-yl)-2,6-dimethyl-piperazin-1-yl) prop-2-en-1-one], the Binding % is reported as “++ (++ indicates binding activity from 50 to 90%)”.
With `C=CC(=O)N1C[C@@H](C)N(c2nc(N)nc3c(F)c(-c4cc(O)cc5ccccc45)c(Cl)cc23)[C@@H](C)C1` [Compound 18, 1-((3S,5R)-4-(2-amino-6-chloro-8-fluoro-7-(3-hydroxynaphthalen-1-yl)quinazolin-4-yl)-3,5-dimethyl-piperazin-1-yl) prop-2-en-1-one] the Binding % was “++ (++ indicates binding activity from 50 to 90%)”.
With `C=CC(=O)N1C[C@H](C)N(c2nc(N3CC(N(C)C)C3)nc3c(F)c(-c4c(C)ccc5cn[nH]c45)c(Cl)cc23)C[C@H]1C` (atropisomer, axis not shown) [Compound 73, 1-((2R,5S)-4-((S)-6-chloro-2-(3-(dimethylamino)azetidin-1-yl)-8-fluoro-7-(6-methyl-1H-indazol-7-yl)quinazolin-4-yl)-2,5-dimethyl-piperazin-1-yl) prop-2-en-1-one] the Binding % was “+ (+ indicates binding activity up to 50%)”.
With `C=CC(=O)N1CCN(c2nc(N3CC(N(C)C)C3)nc3c(F)c(-c4c(O)cccc4F)c(Cl)cc23)[C@@H](C)C1` (atropisomer, axis not shown) [Compound 58, 1-((S)-4-((S)-6-chloro-2-(3-(dimethylamino)azetidin-1-yl)-8-fluoro-7-(2-fluoro-6-hydroxyphenyl)quinazolin-4-yl)-3-methyl-piperazin-1-yl) prop-2-en-1-one] the Binding % was “+++ (+++ indicates binding activity greater than 90%)”.
For `C=CC(=O)N1[C@H](C)CN(c2nc(OC3CCN(C4CC4)CC3)nc3c(F)c(-c4c(C)ccc5[nH]ncc45)c(Cl)cc23)C[C@@H]1C` [Compound 37, 1-((2S,6R)-4-(6-chloro-2-((1-cyclopropyl-piperidin-4-yl)oxy)-8-fluoro-7-(5-methyl-1H-indazol-4-yl)quinazolin-4-yl)-2,6-dimethyl-piperazin-1-yl) prop-2-en-1-one], the Binding % was “++ (++ indicates binding activity from 50 to 90%)”.

Same assay, conditions: covalent binding to KRAS G12C after a three minute incubation period
`C=CC(=O)N1C[C@H](C)N(c2nc(N3CC(N(C)CC)C3)nc3c(F)c(-c4c(O)cccc4F)c(Cl)cc23)C[C@H]1C` [Compound 102, 1-((2R,5S)-4-(6-chloro-2-(3-(ethyl(methyl)amino)azetidin-1-yl)-8-fluoro-7-(2-fluoro-6-hydroxyphenyl)quinazolin-4-yl)-2,5-dimethyl-piperazin-1-yl) prop-2-en-1-one] was tested, and the Binding % was “++ (++ indicates binding activity from 50 to 90%)”.
With `C=CC(=O)N1C[C@H](C)N(c2nc(OCCN3CCC(F)(F)C3)nc3c(F)c(-c4cc(O)cc5ccccc45)c(Cl)cc23)C[C@H]1C` [Compound 201, 1-((2R,5S)-4-(6-chloro-2-(2-(3,3-difluoropyrrolidin-1-yl)ethoxy)-8-fluoro-7-(3-hydroxynaphthalen-1-yl)quinazolin-4-yl)-2,5-dimethyl-piperazin-1-yl) prop-2-en-1-one] the Binding % was “++ (++ indicates binding activity from 50 to 90%)”.
For `C=CC(=O)N1C[C@H](C)N(c2nc(N3CC(NC)C3)nc3c(F)c(-c4c(C)ccc5[nH]ncc45)c(Cl)cc23)C[C@H]1C` [Compound 188, 1-((2R,5S)-4-(6-chloro-8-fluoro-7-(5-methyl-1H-indazol-4-yl)-2-(3-(methylamino)azetidin-1-yl)quinazolin-4-yl)-2,5-dimethyl-piperazin-1-yl) prop-2-en-1-one], the Binding % was “+ (+ indicates binding activity greater than 0% and up to 50%)”.
`C=CC(=O)N1C[C@H](C)N(c2nc(OCCN3CC(F)(F)C3)nc3c(F)c(-c4c(C)ccc5cn[nH]c45)c(Cl)cc23)C[C@H]1C` (atropisomer, axis not shown) [Compound 127, 1-((2R,5S)-4-(6-chloro-2-(2-(3,3-difluoroazetidin-1-yl)ethoxy)-8-fluoro-7-((R)-6-methyl-1H-indazol-7-yl)quinazolin-4-yl)-2,5-dimethyl-piperazin-1-yl) prop-2-en-1-one] was tested, and the Binding % was “+++ (+++ indicates binding activity greater than 90%)”.
In the case of `C=CC(=O)N1C[C@H](C)N(c2nc(N3CC(N(C)C)C3)nc3c(F)c(-c4ccccc4C(F)(F)F)c(Cl)cc23)C[C@H]1C` [Compound 168, 1-((2R,5S)-4-(6-chloro-2-(3-(dimethylamino)azetidin-1-yl)-8-fluoro-7-(2-(trifluoromethyl)phenyl)quinazolin-4-yl)-2,5-dimethyl-piperazin-1-yl) prop-2-en-1-one], the Binding % is reported as “++ (++ indicates binding activity from 50 to 90%)”.
In the case of `C=CC(=O)N1C[C@H](C)N(c2nc(N3CC(N(C)CC(F)F)C3)nc3c(F)c(-c4c(O)cccc4F)c(Cl)cc23)C[C@H]1C` [Compound 107, 1-((2R,5S)-4-(6-chloro-2-(3-((2,2-difluoroethyl) (methyl)amino)azetidin-1-yl)-8-fluoro-7-(2-fluoro-6-hydroxyphenyl)quinazolin-4-yl)-2,5-dimethyl-piperazin-1-yl) prop-2-en-1-one], the Binding % is reported as “++ (++ indicates binding activity from 50 to 90%)”.
For `C=CC(=O)N1C[C@H](C)N(c2nc(OC3CCN(C4CC4)CC3)nc3c(F)c(-c4c(C)ccc5cn[nH]c45)c(Cl)cc23)C[C@H]1C` [Compound 137, 1-((2R,5S)-4-(6-chloro-2-((1-cyclopropyl-piperidin-4-yl)oxy)-8-fluoro-7-(6-methyl-1H-indazol-7-yl)quinazolin-4-yl)-2,5-dimethyl-piperazin-1-yl) prop-2-en-1-one], the Binding % was “+++ (+++ indicates binding activity greater than 90%)”.
For `C#CCN(C)C1CN(c2nc(N3C[C@@H](C)N(C(=O)C=C)C[C@@H]3C)c3cc(Cl)c(-c4c(O)cccc4F)c(F)c3n2)C1` [Compound 93, 1-((2R,5S)-4-(6-chloro-8-fluoro-7-(2-fluoro-6-hydroxyphenyl)-2-(3-(methyl (prop-2-yn-1-yl)amino)azetidin-1-yl)quinazolin-4-yl)-2,5-dimethyl-piperazin-1-yl) prop-2-en-1-one], the Binding % was “++ (++ indicates binding activity from 50 to 90%)”.
In the case of `C=CC(=O)N1C[C@H](C)N(c2nc(OCCN(CC)CC)nc3c(F)c(-c4c(C)ccc5cn[nH]c45)c(Cl)cc23)C[C@H]1C` [Compound 136, 1-((2R,5S)-4-(6-chloro-2-(2-(diethylamino)ethoxy)-8-fluoro-7-(6-methyl-1H-indazol-7-yl)quinazolin-4-yl)-2,5-dimethyl-piperazin-1-yl) prop-2-en-1-one], the Binding % is reported as “+++ (+++ indicates binding activity greater than 90%)”.
For `C=CC(=O)N1C[C@H](C)N(c2nc(OCCCN(C)C)nc3c(F)c(-c4c(O)ccc5ccccc45)c(Cl)cc23)C[C@H]1C` [Compound 224, 1-((2R,5S)-4-(6-chloro-2-(3-(dimethylamino)propoxy)-8-fluoro-7-(2-hydroxy-naphthalen-1-yl)quinazolin-4-yl)-2,5-dimethyl-piperazin-1-yl) prop-2-en-1-one], the Binding % was “++ (++ indicates binding activity from 50 to 90%)”.
In the case of `C=CC(=O)N1C[C@H](C)N(c2nc(N3CC(N)C3)nc3c(F)c(-c4c(C)ccc5[nH]ncc45)c(Cl)cc23)C[C@H]1C` [Compound 165, 1-((2R,5S)-4-(2-(3-aminoazetidin-1-yl)-6-chloro-8-fluoro-7-(5-methyl-1H-indazol-4-yl)quinazolin-4-yl)-2,5-dimethyl-piperazin-1-yl) prop-2-en-1-one], the Binding % is reported as “++ (++ indicates binding activity from 50 to 90%)”.
In the case of `C=CC(=O)N1CCN(c2nc(CN(C)Cc3ncccn3)nc3c(F)c(-c4c(O)cccc4F)c(Cl)cc23)C[C@H]1C` [Compound 91, 1-((2R)-4-(6-chloro-8-fluoro-7-(2-fluoro-6-hydroxyphenyl)-2-((methyl (pyrimidin-2-yl-methyl)amino)methyl)quinazolin-4-yl)-2-methyl-piperazin-1-yl) prop-2-en-1-one], the Binding % is reported as “+ (+ indicates binding activity greater than 0% and up to 50%)”.
With `C=CC(=O)N1C[C@H](C)N(c2nc(N3CC(NC)C3)nc3c(F)c(-c4c(C)ccc5cn[nH]c45)c(Cl)cc23)C[C@H]1C` (atropisomer, axis not shown) [Compound 109, 1-((2R,5S)-4-(6-chloro-8-fluoro-7-((S)-6-methyl-1H-indazol-7-yl)-2-(3-(methylamino)azetidin-1-yl)quinazolin-4-yl)-2,5-dimethyl-piperazin-1-yl) prop-2-en-1-one] the Binding % was “+ (+ indicates binding activity greater than 0% and up to 50%)”.
